Blank lines part the entries; values can stand above or below the compound they belong to.
Columns and labels:
[1] = In vitro skin permeation, Franz diffusion cell system; assay type: in vitro ADME, human; conditions: for Total accumulated dose passed through the skin into the reservoir / Total accumulated dose in Dermis / Total accumulated dose in Epidermis: 1.0 wt % in squalane, 5 μl, nominal 90.91 μg/cm^2; for Total accumulated dose in Dermis / Total accumulated dose in Epidermis: measured at 24 hours; for penetration to the dermis compared with THDA: 24 hour time point, cadaver skin
Method: The rate and extent of in vitro skin permeation of compounds tetrahexydecyl ascorbate (THDA, shown below), di(hexahydrofarnesyl) ascorbate (Compound (II-A)), tri(hexahydrofarnesyl) ascorbate (Compound (II-B)), and tetra(hexahydrofamesyl) ascorbate (Compound (II-C)) was measured into and through cadaver skin using a Franz diffusion cell system. THDA is a Vitamin C ester commonly used in cosmetic formulations.
Flux was measured over a period of 24 hours after application of the formulations. At the end of the 24 hour study, the skin was washed, tapestripped and split into epidermal and dermal compartments. The compounds were then extracted from the skin compartments and the compound concentration was measured in these compartments along with the receptor fluid aliquots. The formulations were chosen to determine the effect of the formulation composition and compound concentration on the rate of delivery of the compounds into and through the skin. In vitro skin permeation measurements with Franz-type diffusion cells provide data that is informative relative to in vivo performance.
To prepare the formulations, the compounds were weighed in a glass vial into which the squalane was added. The ending solution was then vortexed for 1 minute, followed by sonication for 30 minutes.
Intact human cadaver skin was purchased from Science Care. The skin tissue was dermatomed by the tissue bank to a thickness of some 250-500 μm and shipped frozen on dry ice. Upon receipt of the donor skin, the skin pieces were stored at −20° C. until used. Prior to use, the skin pieces were removed from the freezer and allowed to thaw fully at ambient temperature.
The following equipment was used during the course of the study: • 1.) Diffusion cells. 24 diffusion cells with 3.3 ml receptor volume and a […] receptor fluid exposure surface area. • 2.) Stirring Dry Block Heaters. Reacti-Therm #18823 stirring dry block heaters were used to maintain the receptor fluid at 32±0.5° C. with constant stirring throughout the study. • 3.) The analysis was carried out with an Agilent 1260 HPLC with a G6120 MS detector and a G4212B diode array detector.
After the analytical testing was complete, the samples were analyzed using Chemstation software. The areas under the curve (“AUCs”) of the compound peaks were recorded and converted to jig/ml values using a calibration curve developed from the calibration standards' AUC values and known concentration values. The concentrations were then multiplied by the receptor volume (3.3 mL) and divided by the surface area of the skin exposed to the receptor fluid (0.55 cm^2) for an end cumulative amount in μg/cm^2.
For receptor fluid time points greater than 4 hrs, this μg/cm^2 value was corrected for the sample aliquot volumes which were removed to compensate for the dilution caused by replacing the sample volume with fresh buffer solution. As an example, for the second time point at 8 hrs, the dilution factor (300 μl aliquot/3.3 ml receptor volume or 1/11) is multiplied by the g/cm^2 value calculated for the 4 hr time point, the result of which is then added to the μg/cm^2 concentration which is calculated using the 8 hr AUC value.
The receptor fluid consisted of phosphate buffered saline at pH 7.4, sourced from Quality Biologicals, with 0.01 wt % NaN3 (added as a preservative), and lwt % Brij 020 (added as a solubilizing agent). The solubility of the compounds in the receptor fluid was determined to be sufficient to maintain sink conditions throughout the study. After mixing the receptor fluid, the receptor fluid was degassed, filtered through a ZapCap CR 0.2 μm membrane under vacuum, and stirred for an additional 20 minutes under vacuum.
Glass FDCs with a 3.3 ml receiver volume and 0.55 cm^2 diffusional area were used. Once the skin was defrosted and washed as described above the FDCs were prepared as follows: • 1. The receptor wells were filled with degassed receptor fluid using a pipette. • 2. […]

[2] = Viscosity (capillary viscometer / rheometer); assay type: physicochemical; conditions: for Viscosity: at 25° C., ARES G2 rheometer
Method: The viscosity, gloss, surface tension, and wetting were also calculated for farnesyl HH-farnesoate (Compound (I-C)) and the results are shown in Table 4. The properties of Table 4 were determined as follows: Measurement of dynamic viscosity using rheometer: Using a ARES G2 rheometer, the viscosity of the samples were measured using 25 mm plate clamps with a gap size about 0.5 mm, strain 1%, frequency range 1-500 rad/s, and a temperature of about 25° C.

[3] = Surface tension by pendant drop; assay type: physicochemical; conditions: for surface tension (comparison in words): pendant drop shape analysis, FIG. 4; for Surface tension: Kruss DSA 100, pendant drop
Method: The surface tension of a material in beauty and personal care (B&PC) ingredients accounts for many of the sensory attributes. The lower the surface tension of a material the better is the material's spreadability, slip, glide, and lubricity.
(§1) Example 9: Wetting on Hydrophobic-PTFE and Hydrophilic-Glass Slide Substrates by Static Contact Angle and Surface Tension by Pendant Drop Shape Analysis
(§2) The wetting values (on hydrophobic-PTFE and on hydrophilic-glass slides) were measured and compared for amodimethicone, LEX FEEL (diheptyl succinate), non-redistilled HDD, distilled HDD, PROTOL (mineral oil), RUDOL (mineral oil), ERVOL (mineral oil), and squalane. […] The lower surface tension of HDD can be translated to better spreading and glide in formulations and position it comparably with mineral oils with similar viscosities and LEX FEEL 350.
(§3) Measurement of surface tension of liquids: A Kruss DSA 100 was employed using the pendant drop method. Prior to the measurement, surface tension of the water was tested as a standard with an expected surface tension of 72 mN/m at 25° C. Then, a drop of the tested liquid was pushed through a 0.514 mm needle of a micro syringe and the surface tension was calculated using inbuilt software. The result of the measurement is an average of at least 3 measurements. Static contact angle measurement (wetting): To measure the contact angle, a Kriss DSA 100 and the sessile drop method were used. A glass substrate was used for the measurements. To measure the contact angle on the substrate, a single drop was deposited onto the substrate from a 0.514 mm needle of a micro syringe. Then, drop shape and contact angle were analyzed using inbuilt software. The result of the measurement was the average of at least 3 measurements. To ensure that the substrate is prepared well, it was cleaned with non-polar hexane, THF, and polar acetone. To ensure that the glass substrate was clean, a drop of water was deposited on its surface. Gloss measurement: To measure the gloss, 2 mL of material was drawn downed on a glass substrate. Then glass was placed over a black matte surface and gloss was measured with a BYK micro-TRI-gloss glossmeter.

[4] = Static contact angle (wetting) on glass / PTFE; assay type: physicochemical; conditions: for Water contact angle: static contact angle on glass
Method: Static water contact angle is another indication of material spreading and wetting.
as §1, §2, §3

[5] = Gloss measurement (glossmeter); assay type: physicochemical
Method: Gloss is a very desirable property in B&PC products. Gloss was measured at 20 deg.
Tested dimethicones have the lowest gloss.
as §3

Compound: hexahydrofarnesene dimer [HDD Glycotech]
viscosity by rheology [2]: 68.2
surface tension (comparison in words) ([3]; listed as Non-redistilled HDD): highest values of surface tension

Compound: hexahydrofarnesene dimer [HDD]
Water contact angle [4]: 19.8 °
Viscosity @20 C., cP [2]: 61.5 cP
viscosity by rheology [2]: 61.5
Surface tension, mN/m [3]: 24.5 mN/m
surface tension (comparison in words) ([3]; listed as Distilled HDD): lower surface tension value
Gloss ([5]; measured at 20 deg): 70.6

Compound: CC(C)CCCC(C)CCCC(C)CCOC(=O)CC(C)CCCC(C)CCCC(C)C (centres unmarked) [Compound (I-C), 3,7,11-trimethyldodecyl 3,7,11-trimethyldodecanoate]
Wetting (static contact angle) ([4]; sessile drop on glass substrate): 18.5°
Viscosity [2]: 30 ± 10 cP at 25 °C
Viscosity ([2]; listed as Compound I-C): 30±10 cP
Surface tension [3]: 27.6 ± 0.2 mN/m
Surface tension ([3]; listed as Compound I-C): 27.6±0.2 mN/m
Gloss ([5]; BYK micro-TRI-gloss glossmeter, drawn down on glass): 69.4 ± 2.7

Now from value to compound:

Total accumulated dose passed through the skin into the reservoir ([1]; 4 hrs): 0.00 μg/cm^2
Total accumulated dose passed through the skin into the reservoir ([1]; 8 hrs): 0.00 μg/cm^2
Total accumulated dose passed through the skin into the reservoir ([1]; 24 hrs): 0.00 μg/cm^2
Total accumulated dose in Dermis [1]: 0.18 μg/cm^2
Total accumulated dose in Epidermis [1]: 25.78 μg/cm^2
Compound: CCCCCCCCC(CCCCCC)C(=O)OCC(OC(=O)C(CCCCCC)CCCCCCCC)C1OC(=O)C(OC(=O)C(CCCCCC)CCCCCCCC)=C1OC(=O)C(CCCCCC)CCCCCCCC (centres unmarked) [Tetrahexydecyl ascorbate, tetrahexydecyl ascorbate, reference compound]

Total accumulated dose passed through the skin into the reservoir ([1]; 4 hrs): 0.17 μg/cm^2
Total accumulated dose passed through the skin into the reservoir ([1]; 8 hrs): 0.18 μg/cm^2
penetration to the dermis compared with THDA [1]: better penetration to the dermis
Total accumulated dose passed through the skin into the reservoir ([1]; 24 hrs): 0.20 μg/cm^2
Total accumulated dose in Dermis [1]: 0.85 μg/cm^2
Total accumulated dose in Epidermis [1]: 9.28 μg/cm^2
Compound: CC(C)CCCC(C)CCCC(C)CC(=O)OC[C@H](OC(=O)CC(C)CCCC(C)CCCC(C)C)C1OC(=O)C(O)=C1O (stereo partly drawn) [Compound (II-A), (1S)-1-(3,4-dihydroxy-5-oxo-2,5-dihydrofuran-2-yl)ethane-1,2-diyl bis(3,7,11-trimethyldodecanoate)]

Total accumulated dose passed through the skin into the reservoir ([1]; 4 hrs): 0.00 μg/cm^2
Total accumulated dose passed through the skin into the reservoir ([1]; 8 hrs): 0.00 μg/cm^2
penetration to the dermis compared with THDA [1]: better penetration to the dermis
Total accumulated dose passed through the skin into the reservoir ([1]; 24 hrs): 0.00 μg/cm^2
Total accumulated dose in Dermis [1]: 1.37 μg/cm^2
Total accumulated dose in Epidermis [1]: 4.41 μg/cm^2
Compound: CC(C)CCCC(C)CCCC(C)CC(=O)OC[C@H](OC(=O)CC(C)CCCC(C)CCCC(C)C)C1OC(=O)C(O)=C1OC(=O)CC(C)CCCC(C)CCCC(C)C (stereo partly drawn) [Compound (II-B), (1S)-1-(4-hydroxy-5-oxo-3-((3,7,11-trimethyldodecanoyl)oxy)-2,5-dihydrofuran-2-yl)ethane-1,2-diyl bis(3,7,11-trimethyldodecanoate)]

Total accumulated dose passed through the skin into the reservoir ([1]; 4 hrs): 0.05 μg/cm^2
Total accumulated dose passed through the skin into the reservoir ([1]; 8 hrs): 0.03 μg/cm^2
Total accumulated dose passed through the skin into the reservoir ([1]; 24 hrs): 0.04 μg/cm^2
Total accumulated dose in Dermis [1]: 0.01 μg/cm^2
Total accumulated dose in Epidermis [1]: 1.02 μg/cm^2
Compound: CC(C)CCCC(C)CCCC(C)CC(=O)OC[C@H](OC(=O)CC(C)CCCC(C)CCCC(C)C)C1OC(=O)C(OC(=O)CC(C)CCCC(C)CCCC(C)C)=C1OC(=O)CC(C)CCCC(C)CCCC(C)C (stereo partly drawn) [Compound (II-C), 2-((1S)-1,2-bis((3,7,11-trimethyldodecanoyl)oxy)ethyl)-5-oxo-2,5-dihydrofuran-3,4-diyl bis(3,7,11-trimethyldodecanoate)]

Water contact angle [4]: 30.9 °
Viscosity @20 C., cP [2]: 23.3 cP
Surface tension, mN/m [3]: 26.1 mN/m
gloss value (comparison in words) [5]: somewhat lower gloss value
Gloss ([5]; measured at 20 deg): 65.7
Compound: CC(C)CCCC(C)CCCC(C)CCCCC(C)CCCC(C)CCCC(C)C (centres unmarked) [Squalane, squalane, reference compound]

From patent US20260207459A1, “SUGARCANE DERIVED SEMI-SYNTHETIC COSMETIC INGREDIENTS, METHODS OF PRODUCTION THEREOF, AND PERSONAL CARE PRODUCTS DERIVED THEREFROM” (AMYRIS, INC., priority 2023, published 2026)
